Measured values reported in US11986647B2, “Treating autoinflammatory and mitochondrial diseases using an alternating electric field” (Novocure GmbH, priority 2018, dated 2024).
Values joined by “and” are separate entries in the source; they are usually repeats but may differ in a detail not shown here. Equal values may be shown once.

Assays:
brain tumor cell lines = test: IC50 determination through drug-response curves; type: cell-based; conditions: range across the brain tumor cell lines
Protocol: (§1) Cells were treated with TMZ (Sigma-Aldrich), Paclitaxel (Sigma-Aldrich) and Mebendazole (Sigma-Aldrich) as a monotherapy or in combination with TTFields. Each of the drugs were administered at their IC50 (high dose) or 10% IC50 (low dose), with the IC50s being determined through drug-response curves.
(§2) PrestoBlue™ was added to each sample at a time-point at a 1:10 dilution. Samples were incubated at 37° C. for 30 minutes. 100 μ1 (triplicate) of the PrestoBlue solution was transferred to a black-bottomed 96-well plate and fluorescence was analyzed via UV-Vis Spectroscopy at excitation/emission wavelengths at 560/590 nm with the FLUOstar Omega (BMG Labtech).

SF188 cells = conditions: human, 72 h
Protocol: as §1
(§3) TTFields were applied using the Inovitro™ system (Novocure, Haifa). The system consists of two pairs of perpendicular transducer arrays on the outer walls of a ceramic Petri dish. A sinusoidal waveform generator was attached to the transducer arrays to produce alternating electric fields at frequencies between 100-400 kHz and 1.75V/cm intensity. The electric fields alternated orientation of 90° every second. The temperature was measured to be 37° C. inside the dishes by 2 thermistors attached to the ceramic walls.
as §2

BXD-1425EPN cells = conditions: human, 72 h
Protocol: as §1, §3, §2

UW228-3 cells = conditions: human, 72 h
Protocol: as §1, §3, §2

## COC(=O)Nc1nc2ccc(C(=O)c3ccccc3)cc2[nH]1 [Mebendazole]
Brain tumor cell lines
  IC50: 0.03 to 1.2 µM and 0.02 to 1.2 µM
SF188 cells
  reduction of cell viability: 39%
BXD-1425EPN cells
  reduction of cell viability: 30%
UW228-3 cells
  reduction of cell viability: 28%

## CC(=O)O[C@H]1C(=O)[C@@]2(C)[C@H]([C@H](OC(=O)c3ccccc3)[C@]3(O)C[C@H](OC(=O)[C@H](O)[C@@H](NC(=O)c4ccccc4)c4ccccc4)C(C)=C1C3(C)C)[C@]1(OC(C)=O)CO[C@@H]1C[C@@H]2O [Paclitaxel]
Brain tumor cell lines
  IC50: 0.00036 to 0.0046 µM and 0.0004 to 0.0046 µM
SF188 cells
  reduction of cell viability: 30%
BXD-1425EPN cells
  reduction of cell viability: 23%
UW228-3 cells
  reduction of cell viability: 32%
